The test system of one data set is γH2A.X. Kind of data set: Immunofluorescence staining of γH2A.X foci. The data set is classed as cell-based, human. Conditions: MDA-MB-231 (2 μM) and OVCAR5 (0.5 μM) cells; 24 h. As to the method:
Immunofluorescence-staining of γH2A.X was performed as described before. Briefly, cells were seeded on cover glasses in 24-well plates, cultured for 24–48 h, and then treated with cisplatin alone or together with Olaparib or ZC-22 for 24 h. After washing with PBS, cells were fixed by 4% PFA, permeated with 0.5% Triton-X100 in PBS, washed thrice with 0.1% PBS-Tween (PBST), blocked with 3% BSA in PBST, and then incubated with anti-γH2A.X antibody overnight at 4 °C. […] At least 150 cells in three fields were counted for each repeat.
Figure 3 ZC-22 inhibits CDK4/6 and PARP to induce cell-cycle arrest, DNA damage, and apoptosis in breast and ovarian cancer cells. […] The levels of CDK4/6 and p-Rb/Rb were determined by Western blot (A). Cell-cycle distribution was analyzed by flow cytometry (B). […] (D,E) Representative pictures (left) and quantification of percentage (right) of γH2A.X-positive cells in MDA-MB-231 cells treated with 2 μM OLA or ZC-22 for 24 h (D), or OVCAR5 cells treated with 0.5 μM OLA or ZC-22 for 24 h (E). Values are means ± SD, n = 3. * p < 0.05, ** p < 0.01, and *** p < 0.001 for comparisons with the DMSO-treated group. p value was calculated using an unpaired t-test. […] Values are means ± SD, n = 3. * p < 0.05, ** p < 0.01, and *** p < 0.001 vs. the DMSO-treated group. p value was calculated using an unpaired t-test. […]

The nature of data set [1]: Body weight and histological analysis (H&E) of major organs, MDA-MB-231 tumor-bearing mice. The data set is classed as in vivo. To be noted: ZC-22 monotherapy 50 mg/kg ip. Here is the method:
To detect the safety of ZC-22 monotherapy or combination therapy, sections of mouse heart, liver, spleen, lung, and kidney tissues were stained with hematoxylin and eosin (H&E) and then analyzed by microscopy.
Figure S3. ZC-22 inhibits signaling of CDK4/6 and PARP in xenograft tumors of breast cancer. Female NOD-SCID mice were injected subcutaneously with 2×10^6 of MDA-MB-231 cells and treated ip daily with 50 mg/kg of Olaparib (OLA) or LY2835219 (LY-2) alone or together (OLA+LY-2), or ZC-22 starting on day 10 after injection of cells when tumors were 50–80 mm3 in size. Representative pictures of (A) and quantification of percentage of (B) phosphorylated Rb (p-Rb)-positive cells in immunohistochemical staining of the MDA-MB-231 xenograft tumor tissues. Values are means ± SEM, n = 6. ns, not significant, and *** p < 0.001 in the unpaired t-test. (C) Western blot analysis of p-Rb (Left) and PAR (Right) in the MDA-MB-231 xenograft tumor tissues with indicated treatment.
(D) Body weights of MDA-MB-231 tumor burden mice with indicated treatment. Values are means ± SD, n = 6. ns, not significant in unpaired t-test. (E) H&E staining of the heart, liver, spleen, lung, and kidney tissues of tumor-bearing mice treated with DMSO or ZC-22, showing the lack of toxicity of ZC-22 treatment.
Figure S4. ZC-22 increases the sensitivity of breast and ovarian cancer cells to cisplatin. […]

Experimental findings from paper PMC8911181, “A Novel CDK4/6 and PARP Dual Inhibitor ZC-22 Effectively Suppresses Tumor Growth and Improves the Response to Cisplatin Treatment in Breast and Ovarian Cancer” (International Journal of Molecular Sciences, 2022) are described below.

Molecules are shown by their SMILES.

For the molecule `Cc1nc2c(F)cc(-c3nc(Nc4ccc(N5CCN(C(=O)c6cc(Cc7n[nH]c(=O)c8ccccc78)ccc6F)CC5)cn4)ncc3F)cc2n1C(C)C` [ZC-22, 4-(4-fluoro-3-(4-(6-((5-fluoro-4-(4-fluoro-1-isopropyl-2-methyl-1H-benzo[d]imidazole-6-yl)pyrimidin-2-yl)amino)pyridin-3-yl)piperazine-1-carbonyl)benzyl)phthalazin-1(2H)-one], the “formation of γH2A.X foci” value with γH2A.X was “notably induced formation of γH2A.X foci”. The “toxicity (body weight, histology of major organs)” value in data set [1] is recorded as “no obvious toxicity”.
